Reference: US20190248834A1, “ENDOMORPHIN-2, TETRAPEPTIDE DERIVATIVES THEREOF, AND USES THEREOF” (priority 2016, published 2019)
*: point of attachment. NHPhenethyl = c1ccc(CCN*)cc1; Propionyl = CCC(=O)*; NHNHAc = CC(=O)NN*; NHNH2 = NN*; For = O=C*; NHOH = ON*

Columns and labels:
Format in all cases: in vivo, human
[1] = system: psoriatic arthritis of interphalangeal joints of the fingers; assay: Example 93: multiple derivatives evaluated for relief of pain associated with psoriatic arthritis, topical; conditions: 0.8% (w/v) in WEP442, topical to both hands
Description: A subject with extensive plaque psoriasis and psoriatic arthritis of interphalangeal joints of the fingers evaluated multiple tetrapeptide derivatives for comparative effectiveness on relief of their painful fingers. Over the course of 4 weeks, this subject evaluated the analgesic efficacy of ten (10) endomorphin-2 tetrapeptide derivatives in WEP442 at a concentration of 0.8% (w/v) applied topically to both hands, which included all fingers.

[2] = system: severe osteoarthritis of both knees; assay: Example 88: analgesic efficacy of eight derivatives on severe osteoarthritis, topical
Procedure: A subject with severe osteoarthritis of both knees for a duration of about 7 years evaluated numerous tetrapeptide derivatives over the past years. […] Over the course of 3 weeks, this subject evaluated the analgesic efficacy of eight (8) endomorphin-2 tetrapeptide derivatives in WEP442 at a concentration of 1% (w/v) applied topically to the knees.
Reapplication at the end of that time again provided the same effect. Application at bedtime provided relief of pain for 7 hours. The same results were achieved the next day (3+ to 4+ effect).
A second application, about 15 minutes later, provided somewhat more relief (2+ effect).
Application at 9:30 p.m. provided relief until 5:30 a.m., and similar results were achieved the next day (3+ to 4+ effect).
No modification of pain in the right knee, which had received application of vehicle WEP442 as a control, was detected. Application of the composition containing the tetrapeptide derivative to the right knee about 15 minutes later provided prompt relief of pain. Pain relief in both knees lasted for about 5 hours (3+ to 4+ effect).
Relief lasted for about 3 hours. Re-application at that time provided the same degree of pain relief in about 5 minutes, which lasted about another 3 hours (2+ effect).
For the above same subject, the composition containing 1% (w/v) of N-Fo-Tyr-Pro-Phe-Phe-NH2 (SEQ ID NO: 104) in WEP442 was applied to the left knee, and the composition containing 1% (w/v) of N-Bz-Tyr-Pro-Phe-Phe-NH2 (SEQ ID NO: 84) in WEP442 was applied to the right knee moments later. Relief of pain in both knees seemed equivalent, was detectable in 5-7 minutes and lasted for about 4 hours. This procedure was repeated the next day with about the same results. The degree of pain relief from both solutions was rated as 3+ effect.

[3] = system: periostitis of right upper tibia, osteoarthritis of left knee, left hip joint pain, lower back pain; assay: Example 87: pain relief at multiple sites in one subject, topical; conditions: for degree of analgesic effect / duration of pain relief / pain relief at the treated sites / time to pain relief: 0.8% (w/v) in WEP442, topical to the sites of pain
Description: A caregiver subject, presented with (a) painful periostitis of the right upper tibia for about 3 months, (b) painful early osteoarthritis of the left knee for about 1 year, (c) painful left hip joint of about 6 months, and (d) lower back pain near the end of the work day for about 2 years.
Over the course of 16 days, this subject evaluated the analgesic efficacy of eight (8) endomorphin-2 tetrapeptide derivatives in WEP442 at a concentration of 0.8% (w/v) applied topically to the sites of pain.
The lower back pain returned toward the end of the following work day.
Relief of lower back pain lasted for 20-24 hours (4+ effect). […]
For the above same subject, the composition containing 0.8% (w/v) of N-Ac-Tyr-Pro-Phe-Phe-NHCH(CH3)2 (SEQ ID NO: 27) in WEP442 was topically applied to the right upper tibia, left knee and left hip.
For the above same subject, the composition containing 0.8% (w/v) of N-Fo-Tyr-Pro-Phe-Phe-NH2 (SEQ ID NO: 104) in WEP442 was topically applied to 3 sites. Relief of pain was variable. […] Relief of pain in the right upper tibia was complete in about 4 minutes, lasting for 12 hours.
For the above same subject, the composition containing 0.8% (w/v) of N-Bz-Tyr-Pro-Phe-Phe-NH2 (SEQ ID NO: 84) in WEP442 provided relief of pain within 2-4 minutes. On the left hip, the relief was complete, lasting for about 12 hours (4+ effect). On the left knee, relief was incomplete, about 50%, lasting for only about 3 hours (2+ effect). On the right upper tibia, relief was complete and lasted for about 12 hours (4+ effect).

[4] = 1% (w/v) in WEP442, topical to the knees
[5] = 0.8% (w/v) in WEP442, right upper tibia

| Substance | degree of analgesic effectiveness [1] | duration of pain relief [1] | pain relief [1] | time to pain relief [1] [min] | duration of pain relief ([2]; 1% (w/v) in WEP442, application at bedtime) [h] | duration of pain relief [2, 4] | pain relief [2, 4] | time to pain relief [2, 4] [min] | degree of analgesic effect [3] | duration of pain relief [3] [h] | pain relief at the treated sites [3] | time to pain relief [3] [min] | analgesic effect grade [2, 4] | time to pain relief, left hip ([3]; 0.8% (w/v) in WEP442, left hip) | pain relief, left knee ([3]; 0.8% (w/v) in WEP442, left knee) | duration of pain relief, right upper tibia ([3]; 0.8% (w/v) in WEP442, periostitis of right upper tibia) [h] | pain relief, right upper tibia [3, 5] | time to pain relief, right upper tibia [3, 5] |
| --- | --- | --- | --- | --- | --- | --- | --- | --- | --- | --- | --- | --- | --- | --- | --- | --- | --- | --- |
| N-Ac-Tyr-Pro-Phe-Phe-NHCH2CH3 (Ac-YPFF-NHEt; SMILES CCNC(=O)[C@H](Cc1ccccc1)NC(=O)[C@H](Cc1ccccc1)NC(=O)[C@@H]1CCCN1C(=O)[C@H](Cc1ccc(O)cc1)NC(C)=O) | 4+ | about 7 hours | complete relief of pain | 1 to 2 | 7 | 3 to 4 h | very good relief of pain | 3 to 5 | 4+ | ≥ 5 | complete relief of pain | 3 to 4 | – | – | – | – | – | – |
| N-Ac-Tyr-Pro-Phe-Phe-NHNHAc (Ac-YPFF-NHNHAc; SMILES CC(=O)NNC(=O)[C@H](Cc1ccccc1)NC(=O)[C@H](Cc1ccccc1)NC(=O)[C@@H]1CCCN1C(=O)[C@H](Cc1ccc(O)cc1)NC(C)=O) | 4+ | about 7 hours | complete relief of pain | ≤ 2 | – | about 5 hours | substantial relief of pain | 2 to 3 | 4+ | 8 to 24 | complete relief of pain | 1 to 2 | – | – | – | – | – | – |
| N-Pa-Tyr-Pro-Phe-Phe-NHOH (Propionyl-YPFF-{NHOH}; SMILES CCC(=O)N[C@@H](Cc1ccc(O)cc1)C(=O)N1CCC[C@H]1C(=O)N[C@@H](Cc1ccccc1)C(=O)N[C@@H](Cc1ccccc1)C(=O)NO) | 4+ | about 7 hours | complete relief of pain | 2 to 3 | – | – | – | – | – | – | – | – | – | – | – | – | – | – |
| N-Ac-Tyr-Pro-Phe-Phe-NHCH2CH2C6H5 (Ac-YPFF-NHPhenethyl; SMILES CC(=O)N[C@@H](Cc1ccc(O)cc1)C(=O)N1CCC[C@H]1C(=O)N[C@@H](Cc1ccccc1)C(=O)N[C@@H](Cc1ccccc1)C(=O)NCCc1ccccc1) | 0 (zero represented no relief) | – | no detectable analgesic effect | – | – | – | no detectable analgesic effect | – | 0 (zero represented no relief) | – | no detectable analgesic effect | – | 0 | – | – | – | – | – |
| N-Fo-Tyr-Pro-Phe-Phe-NH2 (For-YPFF-NH2; SMILES NC(=O)[C@H](Cc1ccccc1)NC(=O)[C@H](Cc1ccccc1)NC(=O)[C@@H]1CCCN1C(=O)[C@H](Cc1ccc(O)cc1)NC=O) | – | 2 to 3 h | only minimal relief of pain | 5 to 6 | – | about 4 hours | – | – | – | – | – | – | – | about 5 minutes | No relief of pain | 12 | complete | about 4 minutes |
| N-Pa-Tyr-Pro-Phe-Phe-NHNH2 (Propionyl-YPFF-NHNH2; SMILES CCC(=O)N[C@@H](Cc1ccc(O)cc1)C(=O)N1CCC[C@H]1C(=O)N[C@@H](Cc1ccccc1)C(=O)N[C@@H](Cc1ccccc1)C(=O)NN) | 4+ | about 7 hours | complete relief of pain | 2 to 3 | – | – | – | – | – | – | – | – | – | – | – | – | – | – |
